Patent US10675293B2, “Nucleoside agents for the reduction of the deleterious activity of extended nucleotide repeat containing genes” (The Board of Trustees of the Leland Stanford Junior …, priority 2015, dated 2020)

Assays:
21-VS cells (HA-Venus) = assay: Control fluorescence of 21-VS stable cells expressing intact Venus; format: cell-based; conditions: higher concentration, where BiFC reduction has reached its plateau
Description: The HA-Supt4h-YC and FLAG-NGN-YN fragments were amplified by PCR using plasmid constructs described above and sub-cloned individually into the pTRE-tight-BI vector (Clontech Laboratories), which contain a bi-directional CMV promoter under the control of tetracycline. The coding sequence of yellow fluorescence protein Venus with a HA-epitope in its N-terminus was PCR-amplified and cloned into the vector to generate pTRE-HA-Venus.
Tet-on HeLa cells were transfected with linearized pTRE-HA-Supt4h-VC-Flag-NGN-VN plasmid construct using LipofectAMINE 2000 (Invitrogen). After transfection, cells were cultured initially in growth medium containing puromycin (1 μg/ml) and then selected for clones that show YFP fluorescence in the presence of tetracycline (4 μg/ml). The stable line having the strongest fluorescence signal was isolated and designated as 2-PN4. […]
Stable lines 2-PN4 and 21-VS were pre-cultured in 6-well plates, followed by an incubation of Doxycycline (4 μg/ml) together with various concentrations of chemical compounds for 24 hr. Cells were washed with PBS (Sigma) and monitored by microscope (20× magnification). Photos were taken using Nikon D500 camera with a setting of ISO 1600, shutter 1/200 for the light images, and shutter ½ for the fluorescence images. […] The average of overall fluorescence signal was determined and compared to the one observed in DMSO-treated control sample. […]

eGFPC1 = assay: GFP reporter in HEK293 cells, eGFPC1 without polyQ; format: cell-based; conditions: higher concentration, 48 hours after transfection
Description: HEK293 cells were transiently transfected with the above mentioned GFP constructs. Five hours after transfection, cells were split among the wells of a 24-well plate and various concentrations of HD101 were added into the wells. 48 hours after transfection, cells were washed with PBS, fixed with 4% paraformaldehyde, and then nuclear stained with DAPI. The cell images were taken by fluorescent microscope (FIG. 9A) and the GFP and DAPI intensity of each field were quantitated using software Image Pro 6.2.

Structure (SMILES): O=c1cnn([C@@H]2O[C@H](CO)[C@@H](O)[C@H]2O)c(=O)[nH]1 [HD101, 6-Azauridine]
- fluorescence of 21-VS cells (21-VS cells (HA-Venus)): markedly affected
- eGFPC1 expression (GFP intensity normalized with DAPI) (eGFPC1): minimum effect
